Results taken from US20070071686A1, “Liquid preparation containing tobramycin” (Pari GmbH, priority 2003, published 2007).

Assay: Physicochemical characterisation of tobramycin solutions (pH, osmolality, dynamic viscosity, surface tension)
Experimental: Thus, aqueous solutions of tobramycin with a pH of 6.0 to 6.5 have a 50% greater viscosity (about 2.9 mPa·s) at a concentration of active agent of 180 mg/ml compared to a solution with 100 mg/ml (about 1.8 mPa·s). […] Under standard conditions, the preparations according to the present invention have a viscosity of about 1.4 to 2.3 mPa·s, and preferably a viscosity in the range of about 1.6 to 2.0 mPa·s. A viscosity of about 1.8 mPa·s is most preferred.
11.08 g of tobramycin, 5.41 g of sulfuric acid (96%), 0.2 g of sodium chloride and 90.95 g of water for injection are used as starting materials. All steps are carried out under aseptic conditions and under nitrogen gas. The water is provided first, to which the sulfuric acid is added. Then sodium chloride and the active agent are added one after the other. The mixture is stirred until complete dissolution of all solid components as determined by visual control. This yields about 100 ml of a solution which has a pH of about 6.0, an osmolality of about 0.22 Osmol/l, a dynamic viscosity of about 1.9 mPa·s and a surface tension of about 71 mN/m. This solution is filtered to sterility and filled into an infusion bottle with a volume of 100 ml. This bottle is tightly closed with a pierceable elastomer stopper and secured with an aluminium cap.
10.88 g of tobramycin, 5.41 g of sulfuric acid (96%), 0.2 g sodium chloride, 0.1 g Tween® 80 and 90.95 g of water for injection are used as starting materials. All steps take place under aseptic conditions and nitrogen gas. The water is provided first to which the sulfuric acid is added. Subsequently, tobramycin is added and dissolved at room temperature. Sodium chloride and Tween® are added to this solution. The mixture is stirred until a clear solution is formed. This yields about 100 ml of a solution which has a pH of about 6.2, an osmolality of about 0.22 Osmol/l, a dynamic viscosity of about 1.9 mPa·s and a surface tension of about 43 mN/m. The solution is filtered to sterility and filled aseptically into single dose containers of polypropylene at 2 ml each. […]

viscosity (aqueous solution, pH 6.0 to 6.5, 100 mg/ml): about 1.8 mPa·s
viscosity (aqueous solution, pH 6.0 to 6.5, 180 mg/ml): about 2.9 mPa·s
viscosity (comparable aqueous solution, 120 mg/ml): about 2.1 mPa·s
SMILES: NC[C@H]1O[C@H](O[C@H]2[C@H](O)[C@@H](O[C@H]3O[C@H](CO)[C@@H](O)[C@H](N)[C@H]3O)[C@H](N)C[C@@H]2N)[C@H](N)C[C@@H]1O [tobramycin, O-3-amino-3-desoxy-α-D-glucopyranosyl(1→4)-O-[2,6-diamino-2,3,6-tridesoxy-α-D-ribo-hexopyranosyl-(1→6)]-2-deoxystreptamine]
